In patent US9695119B2, “Methionine analogs and methods of using same” (Bioxiness Pharmaceuticals, Inc., priority 2008, dated 2017):
Read-outs that look alike come from different tables or passages of the source.

Assays:
L929 cells = details: mouse, 60 min
Experimental: Cytotoxicity is assessed by a colorimetric assay system (Sagripanti J-L, Bonifacino A. Cytotoxicity of Liquid Disinfectants. Surgical Infections, 2000; 1(1): 3-14, the content of which is hereby incorporated by reference, particularly with respect to the experimental methods described therein), using 3′-(phenylamino-carbonyl)-3,4-tetrazo-lium-bis(4-methoxy-6-nitro) benzene sulfonic acid hydrate (XTT), ProCheck™ cell viability assay (Evaluation of a soluble tetrazolium/formazan assay for cell growth and drug sensitivity in culture using human and other tumor cell lines described by Scudiero D A, Shoemaker R A H, Paul K D, Monks A, Tierney S, Nofziger T H, Currens M J, Seniff D, Boyd M R. Cancer Res. 1988 Sep. 1; 48(17):4827-33, the content of which is hereby incorporated by reference, particularly with respect to the experimental methods described therein). Similar approaches for determining the cell viability are used by other investigators. Three cell types are used: […] (L929), primary human skin fibroblast and primary human keratinocyte cells cultured in Dulbecco Modified Eagle's Medium and Keratinocyte defined medium with corresponding growth factors plus antibiotics. Cells are trypsinized and counted under the microscope and seeded at 1000-to-2000 cells per well of a flat-bottom 96-well plate. Cells are allowed to grow overnight at 37° C. Tissue culture media is removed the following day and cells are rinsed with fresh media 1× and then left in 50 μL of tissue culture media. Test articles are prepared as 2-fold dilutions and 200 μL is added into each set of 4-wells (total volume per well is 250 μL). Cells are exposed to test articles for 60 min at room temperature. Immediately after the exposed time, test article from each well is removed and cells are fed with 250 μL of fresh media. Plates are incubated at 37° C. for 18-20 hr. The following day media is removed again and replaced with 100 μL/well of fresh media containing 10/100 μL XTT-reagent. Cells are incubated under growth conditions (5% CO2 at 37° C. humidified incubator), protected from light, until color development is achieved. Absorbance is read at 450 nm with reference wavelength at 750 nm using Molecular Device ThermoMax Plate reader, blanking the plate on the medium-only assay blank wells. Untreated cells receiving XTT reagents-only serve as positive cell proliferation control.
(§1) Results are expressed as percentage of cells surviving the treatment as compared to PBS.

[1] = test system: CV-1 (African Green Monkey Kidney Cells) cells; details: 60 min, pH 7
Experimental: Preliminary studies of cytotoxicity were performed in a mammalian cell viability assay.
CV-1 cells were propagated in DMEM plus 8% FBS according to supplier's recommendations. CV-1 cells were seeded at 1.5×10^4 cells per well in 96-well plates and incubated overnight at 37° C. On the day of testing, growth medium was aspirated from each well, and 20 μl fresh medium was added per well. Test articles were diluted from 50 mM to 0.05 mM by 2-fold serial dilution using PBS at pH 7.0 for each test article. After which 80 μl of each dilution was added to each well for a total volume of 100 μl per well. Following 60 minutes exposure at 37° C., test articles were aspirated and replaced with fresh 100 μl tissue culture media and incubated for 24 hours at 37° C. Next day cell culture media was removed and cell viability was determined by addition of WST-8 (Dojindo, Japan) reagent and the absorption at 450 nm read spectrophotometrically. Orange-red formazan, which is produced by live cells, is a direct measure of cell viability in this assay.
as §1

E. coli (DH5-α) = assay: Growth inhibition of E. coli by methionine analogs, 96-well plate, OD 550 nm over time; assay type: cell-based; details: E. coli, 12.5 mM, OD 550 nm
Text: Comparative Minimum Bactericidal Concentration (MBC) results provide estimates of the susceptibility of various test articles against test organisms. A modification of the […] (NCCL) Standardized Protocol “Methods for dilution antimicrobial susceptibility tests for bacteria that grow aerobically” was used in these studies. Sterile Phosphate Buffer Saline (PBS) at pH 7.0 (vehicle) was used as the diluent. Use of such diluent allows for the determination of the intrinsic activity of our test articles in the absence of any interfering molecules. Specifically, each test article was diluted using 2-fold serial dilution in 96-well plate to give a range of concentrations from approximately 50 mM to 0.05 mM in a final volume of 0.1 mL. Each dilution was inoculated with 5×10^5 CFU/mL test bacteria. The initial optical density as absorbance of each well was read at OD 550 nm using ThermoMax plate reader. […] At various time intervals post-treatment, OD reading at 550 nm was recorded at various time intervals. FIG. 1A and Table 1 show time dependent growth inhibition capability of analogs on E. coli at 12.5 mM. For FIGS. 1A and 1B, the 96-well plate format was used to culture E. coli (DH5-α) cells in M9 minimal media supplemented with glucose (M9) or same media supplemented with a range of concentrations of various analogs. Experiments were carried out in duplicate.

[2] = biological target: E. coli Methionyl-tRNA synthetase (Escherichia coli, UniProt P00959); assay: Enzymatic aminoacylation tRNA charging assay; assay type: biochemical
Experimental: The assay system is as described by Hartman M et al, 2006 Enzymatic aminoacylation of tRNA with unnatural amino acids. PNAS. […] Each assay contains 40 mM Hepes (pH 7.4), 17 mM MgCl2, 45 mM KCl, 3.4 mM 2-mercaptoethanol, 6 mM ATP, 6% glycerol, 350 μM E. coli tRNA (Roche), 0.09 mg/mL BSA, 910 nM Methionyl-tRNA synthetase (MetRS) and amino acids in 100-1,000 μM range. […] Samples are transferred to ice bath to stop the reactions and then small aliquot (2 μL) samples are precipitated using 500 μL of 5% cold TCA onto Whatmann filter papers and vacuumed and then dried under a heat lamp. Radioactivity of each sample is measured as counts per minute (CPM), as compared to controls (without the analog). Results for the S enantiomer of I-A ((S)-2-amino-4-(methylthio)butane-1-sulfonic acid hydrochloride) are shown below in Table 11.

E. coli Methionyl-tRNA synthetase, sequence (P00959 whole entry): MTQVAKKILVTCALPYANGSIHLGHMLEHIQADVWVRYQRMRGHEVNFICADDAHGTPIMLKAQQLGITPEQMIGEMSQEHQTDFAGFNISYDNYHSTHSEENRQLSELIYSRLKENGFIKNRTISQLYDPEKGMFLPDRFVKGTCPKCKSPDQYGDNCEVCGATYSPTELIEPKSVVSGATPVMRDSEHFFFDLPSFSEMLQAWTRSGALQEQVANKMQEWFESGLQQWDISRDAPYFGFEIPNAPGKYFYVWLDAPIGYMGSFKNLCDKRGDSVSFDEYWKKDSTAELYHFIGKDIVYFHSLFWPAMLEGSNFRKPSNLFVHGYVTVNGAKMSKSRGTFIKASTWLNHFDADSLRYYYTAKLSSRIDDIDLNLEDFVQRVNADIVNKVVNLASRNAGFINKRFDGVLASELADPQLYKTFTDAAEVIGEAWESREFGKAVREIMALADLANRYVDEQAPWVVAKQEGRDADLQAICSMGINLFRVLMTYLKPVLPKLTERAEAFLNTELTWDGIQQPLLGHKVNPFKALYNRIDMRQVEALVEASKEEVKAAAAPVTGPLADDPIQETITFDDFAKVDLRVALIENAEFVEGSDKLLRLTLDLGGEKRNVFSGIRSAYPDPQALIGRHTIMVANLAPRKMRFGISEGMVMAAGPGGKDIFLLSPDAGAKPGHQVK

CSCC[C@H](N)C(=O)O [Methionine]
Percentage of Surviving L929 cells relative to control (L929 cells; 0.1 mM): 104%
Percentage of Surviving L929 cells relative to control (L929 cells; 0.2 mM): 101%
Percentage of Surviving L929 cells relative to control (L929 cells; 0.39 mM): 100%
Percentage of Surviving L929 cells relative to control (L929 cells; 0.78 mM): 95%
Percentage of Surviving L929 cells relative to control (L929 cells; 1.56 mM): 87%
Percentage of Surviving L929 cells relative to control (L929 cells; 3.13 mM): 86%
Percentage of Surviving L929 cells relative to control (L929 cells; 6.25 mM): 84%
Percentage of Surviving L929 cells relative to control (L929 cells; 12.5 mM): 85%
Percentage of Surviving L929 cells relative to control (L929 cells; 25 mM): 85%
Percentage of Surviving L929 cells relative to control (L929 cells; 50 mM): 81%
Percentage of Surviving CV-1 cells relative to PBS ([1]; 0.1 mM): 98%
Percentage of Surviving CV-1 cells relative to PBS ([1]; 0.2 mM): 96%
Percentage of Surviving CV-1 cells relative to PBS ([1]; 0.39 mM): 95%
Percentage of Surviving CV-1 cells relative to PBS ([1]; 0.78 mM): 96%
Percentage of Surviving CV-1 cells relative to PBS ([1]; 1.56 mM): 99%
Percentage of Surviving CV-1 cells relative to PBS ([1]; 3.13 mM): 100%
Percentage of Surviving CV-1 cells relative to PBS ([1]; 6.25 mM): 100%
Percentage of Surviving CV-1 cells relative to PBS ([1]; 12.5 mM): 99%
Percentage of Surviving CV-1 cells relative to PBS ([1]; 25 mM): 99%
Percentage of Surviving CV-1 cells relative to PBS ([1]; 50 mM): 66%
Absorbance (E. coli (DH5-α); well 12, time 0 hrs): 0.085
Absorbance (E. coli (DH5-α); well 12, time 1 hrs): 0.123
Absorbance (E. coli (DH5-α); well 12, time 2 hrs): 0.164
Absorbance (E. coli (DH5-α); well 12, time 3 hrs): 0.168
Absorbance (E. coli (DH5-α); well 12, time 3.75 hrs): 0.151
Absorbance (E. coli (DH5-α); well 12, time 5 hrs): 0.191
Absorbance (E. coli (DH5-α); well 12, time 6.5 hrs): 0.202
Absorbance (E. coli (DH5-α); well 12, time 7.25 hrs): 0.202
Absorbance (E. coli (DH5-α); well 12, time 23 hrs): 0.427

CSCC[C@H](N)CS(=O)(=O)O.Cl [I-A, (S)-2-amino-4-(methylthio)butane-1-sulfonic acid hydrochloride]
Radioactivity, Methionyl-tRNA synthetase tRNA charging ([2]; Experiment #1, I-A 0.04 mM, 1 Minute): 2,476 Counts Per Minute
Radioactivity, Methionyl-tRNA synthetase tRNA charging ([2]; Experiment #1, I-A 0.04 mM, 10 Minutes): 3,466 Counts Per Minute
Radioactivity, Methionyl-tRNA synthetase tRNA charging ([2]; Experiment #1, I-A 0.20 mM, 1 Minute): 2,333 Counts Per Minute
Radioactivity, Methionyl-tRNA synthetase tRNA charging ([2]; Experiment #1, I-A 0.20 mM, 10 Minutes): 3,147 Counts Per Minute
Radioactivity, Methionyl-tRNA synthetase tRNA charging ([2]; Experiment #1, I-A 1.00 mM, 1 Minute): 2,372 Counts Per Minute
Radioactivity, Methionyl-tRNA synthetase tRNA charging ([2]; Experiment #1, I-A 1.00 mM, 10 Minutes): 3,218 Counts Per Minute
Radioactivity, Methionyl-tRNA synthetase tRNA charging ([2]; Experiment #1, I-A 5.00 mM, 1 Minute): 2,007 Counts Per Minute
Radioactivity, Methionyl-tRNA synthetase tRNA charging ([2]; Experiment #1, I-A 5.00 mM, 10 Minutes): 2,891 Counts Per Minute
Radioactivity, Methionyl-tRNA synthetase tRNA charging ([2]; Experiment #2, I-A 0.25 mM, 10 Minutes): 1,701 Counts Per Minute
Radioactivity, Methionyl-tRNA synthetase tRNA charging ([2]; Experiment #2, I-A 1.25 mM, 10 Minutes): 1,907 Counts Per Minute
Radioactivity, Methionyl-tRNA synthetase tRNA charging ([2]; Experiment #2, I-A 5.00 mM, 10 Minutes): 1,575 Counts Per Minute
Radioactivity, Methionyl-tRNA synthetase tRNA charging ([2]; Experiment #2, I-A 12.5 mM, 10 Minutes): 1,672 Counts Per Minute

CSCC[C@H](N)C(=O)NO.Cl [I-AA, (S)-2-amino-N-hydroxy-4-(methylthio)butanamide hydrochloride]
Percentage of Surviving L929 cells relative to control (L929 cells; 0.1 mM): 100%
Percentage of Surviving L929 cells relative to control (L929 cells; 0.2 mM): 94%
Percentage of Surviving L929 cells relative to control (L929 cells; 0.39 mM): 89%
Percentage of Surviving L929 cells relative to control (L929 cells; 0.78 mM): 87%
Percentage of Surviving L929 cells relative to control (L929 cells; 1.56 mM): 87%
Percentage of Surviving L929 cells relative to control (L929 cells; 3.13 mM): 87%
Percentage of Surviving L929 cells relative to control (L929 cells; 6.25 mM): 85%
Percentage of Surviving L929 cells relative to control (L929 cells; 12.5 mM): 86%
Percentage of Surviving L929 cells relative to control (L929 cells; 25 mM): 85%
Percentage of Surviving L929 cells relative to control (L929 cells; 50 mM): 82%
Percentage of Surviving CV-1 cells relative to PBS ([1]; 0.1 mM): 97%
Percentage of Surviving CV-1 cells relative to PBS ([1]; 0.2 mM): 95%
Percentage of Surviving CV-1 cells relative to PBS ([1]; 0.39 mM): 96%
Percentage of Surviving CV-1 cells relative to PBS ([1]; 0.78 mM): 96%
Percentage of Surviving CV-1 cells relative to PBS ([1]; 1.56 mM): 100%
Percentage of Surviving CV-1 cells relative to PBS ([1]; 3.13 mM): 100%
Percentage of Surviving CV-1 cells relative to PBS ([1]; 6.25 mM): 99%
Percentage of Surviving CV-1 cells relative to PBS ([1]; 12.5 mM): 101%
Percentage of Surviving CV-1 cells relative to PBS ([1]; 25 mM): 99%
Percentage of Surviving CV-1 cells relative to PBS ([1]; 50 mM): 72%
Absorbance (E. coli (DH5-α); well 12, time 0 hrs): 0.084
Absorbance (E. coli (DH5-α); well 12, time 1 hrs): 0.113
Absorbance (E. coli (DH5-α); well 12, time 2 hrs): 0.130
Absorbance (E. coli (DH5-α); well 12, time 3 hrs): 0.133
Absorbance (E. coli (DH5-α); well 12, time 3.75 hrs): 0.109
Absorbance (E. coli (DH5-α); well 12, time 5 hrs): 0.118
Absorbance (E. coli (DH5-α); well 12, time 6.5 hrs): 0.110
Absorbance (E. coli (DH5-α); well 12, time 7.25 hrs): 0.100
Absorbance (E. coli (DH5-α); well 12, time 23 hrs): 0.130
